# In US20250326753A1, “DUAL CXCR4-BTK INHIBITORS” (X4 Pharmaceuticals, Inc., priority 2022, published 2025):
# How the values were obtained:
# PKN3 = target: T1, PKN3 (Homo sapiens, UniProt Q6P5Z2); assay: PanQinase kinase panel: PKN3; format: biochemical; conditions: read-out: INHIBITORY EFFECT @ 1 uM: PKN3
# T1 construct: purchased Reaction Biology Europe GmbH
# Protocol: (§1) Screening procedures were performed in accordance with the company's on-line protocol [accessed on-line Mar.
# (§2) For each kinase, the median value of the cpm of three wells was defined as “low control” (n=3). This value reflects unspecific binding of radioactivity to the plate in the absence of a protein kinase but in the presence of the substrate. Additionally, for each kinase the median value of the cpm of three other wells was taken as the “high control,” i.e. full activity in the absence of any inhibitor (n=3). The difference between high and low control of each enzyme was taken as 100% activity.
# (§3) As part of the data evaluation the low control of each kinase was subtracted from the high control value as well as from their corresponding “compound values”. The residual activity (in %) for each compound well was calculated by using the following formula: Res. Activity (%)=100×[(signal of compound−low control)/(high control−low control)].
# LYN = target: T2, LYN (Homo sapiens, UniProt P07948); assay: PanQinase kinase panel: LYN; format: biochemical; conditions: read-out: INHIBITORY EFFECT @ 1 uM: LYN
# T2 construct: purchased Reaction Biology Europe GmbH
# Protocol: as §1, §2, §3
# RIPK5 = target: T3, RIPK5 (Homo sapiens, UniProt Q6XUX3); assay: PanQinase kinase panel: RIPK5; format: biochemical; conditions: read-out: INHIBITORY EFFECT @ 1 uM: RIPK5
# T3 construct: purchased Reaction Biology Europe GmbH
# T3 sequence (Q6XUX3 1-929): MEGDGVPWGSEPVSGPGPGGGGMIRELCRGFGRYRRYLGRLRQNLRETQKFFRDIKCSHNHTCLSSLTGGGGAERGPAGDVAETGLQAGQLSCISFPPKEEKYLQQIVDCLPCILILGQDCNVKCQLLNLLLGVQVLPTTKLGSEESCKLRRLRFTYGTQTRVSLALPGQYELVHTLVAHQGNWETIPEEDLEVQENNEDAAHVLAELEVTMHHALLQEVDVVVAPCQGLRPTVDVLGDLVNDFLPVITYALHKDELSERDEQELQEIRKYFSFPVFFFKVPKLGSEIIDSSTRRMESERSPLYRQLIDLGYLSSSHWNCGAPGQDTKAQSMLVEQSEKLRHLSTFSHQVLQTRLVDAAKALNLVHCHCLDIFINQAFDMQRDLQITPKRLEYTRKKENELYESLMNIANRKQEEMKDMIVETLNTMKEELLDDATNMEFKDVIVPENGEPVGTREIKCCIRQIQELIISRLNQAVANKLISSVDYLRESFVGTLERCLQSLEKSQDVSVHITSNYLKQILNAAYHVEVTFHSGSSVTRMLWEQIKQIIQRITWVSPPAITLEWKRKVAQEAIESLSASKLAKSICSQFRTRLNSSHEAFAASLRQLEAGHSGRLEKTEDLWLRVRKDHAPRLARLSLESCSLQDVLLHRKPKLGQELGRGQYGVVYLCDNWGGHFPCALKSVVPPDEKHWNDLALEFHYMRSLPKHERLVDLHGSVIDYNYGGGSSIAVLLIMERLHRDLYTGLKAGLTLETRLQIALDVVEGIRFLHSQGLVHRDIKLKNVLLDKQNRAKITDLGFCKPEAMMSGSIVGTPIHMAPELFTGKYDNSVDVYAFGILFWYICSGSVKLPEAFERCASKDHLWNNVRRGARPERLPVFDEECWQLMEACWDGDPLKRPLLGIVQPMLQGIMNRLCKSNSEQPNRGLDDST
# Protocol: as §1, §2, §3
# SRMS = target: T4, SRMS (Homo sapiens, UniProt Q9H3Y6); assay: PanQinase kinase panel: SRMS; format: biochemical; conditions: read-out: INHIBITORY EFFECT @ 1 uM: SRMS
# T4 construct: purchased Reaction Biology Europe GmbH
# Protocol: as §1, §2, §3
# MKK6 SDTD = target: T5, MKK6 SDTD (Homo sapiens, UniProt P52564, S207D/T211D); assay: PanQinase kinase panel: MKK6 SDTD; format: biochemical; conditions: read-out: INHIBITORY EFFECT @ 1 uM: MKK6 SDTD
# T5 construct: purchased Reaction Biology Europe GmbH
# T5 sequence (P52564 1-334 S207D/T211D): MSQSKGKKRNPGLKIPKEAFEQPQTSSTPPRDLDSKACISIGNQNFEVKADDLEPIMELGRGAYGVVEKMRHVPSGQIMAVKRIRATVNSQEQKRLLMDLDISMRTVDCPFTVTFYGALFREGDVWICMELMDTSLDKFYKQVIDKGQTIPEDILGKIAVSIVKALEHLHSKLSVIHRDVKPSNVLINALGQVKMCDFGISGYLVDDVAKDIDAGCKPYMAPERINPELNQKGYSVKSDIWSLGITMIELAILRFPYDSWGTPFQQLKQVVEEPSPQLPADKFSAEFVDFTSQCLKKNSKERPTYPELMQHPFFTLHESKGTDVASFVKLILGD
# Protocol: as §1, §2, §3
# CXCR4 = CXCR4 (Homo sapiens, UniProt P61073); assay: Intracellular CXCL-12-induced calcium mobilization assay (FLIPR), U87.CXCR4 cells; format: cell-based; parameters: expressed in transfected cells; host or cells: U87 (U87.CXCR4); conditions: CXCL-12 25-50 ng/ml, read-out: IC50 CXCL-12 Ca2+ flux U87.CXCR4+
# Procedure, shortened: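 U87 cells transfected with CXCR4 were loaded with 4 μM Fluo-2 AM for 45 min at 37° C in HBSS with 20 mM HEPES and 0.2% BSA, pH 7.4. Calcium mobilization induced by CXCL-12 (25-50 ng/ml) was followed over time by FLIPR fluorescence at 37° C.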
# T2 sequence (P07948 whole entry): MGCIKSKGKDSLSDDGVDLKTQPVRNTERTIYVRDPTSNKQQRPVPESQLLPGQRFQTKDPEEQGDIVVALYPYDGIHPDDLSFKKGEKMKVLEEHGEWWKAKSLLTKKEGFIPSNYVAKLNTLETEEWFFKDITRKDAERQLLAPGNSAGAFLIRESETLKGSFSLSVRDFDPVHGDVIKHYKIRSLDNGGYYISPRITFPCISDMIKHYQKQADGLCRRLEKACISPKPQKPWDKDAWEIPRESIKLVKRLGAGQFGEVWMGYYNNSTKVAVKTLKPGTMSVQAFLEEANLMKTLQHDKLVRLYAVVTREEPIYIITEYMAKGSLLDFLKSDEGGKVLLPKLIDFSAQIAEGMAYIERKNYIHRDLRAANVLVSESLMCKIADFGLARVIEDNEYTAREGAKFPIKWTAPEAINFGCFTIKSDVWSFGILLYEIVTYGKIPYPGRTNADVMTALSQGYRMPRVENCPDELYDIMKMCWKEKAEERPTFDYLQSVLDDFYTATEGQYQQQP
# T4 sequence (Q9H3Y6 whole entry): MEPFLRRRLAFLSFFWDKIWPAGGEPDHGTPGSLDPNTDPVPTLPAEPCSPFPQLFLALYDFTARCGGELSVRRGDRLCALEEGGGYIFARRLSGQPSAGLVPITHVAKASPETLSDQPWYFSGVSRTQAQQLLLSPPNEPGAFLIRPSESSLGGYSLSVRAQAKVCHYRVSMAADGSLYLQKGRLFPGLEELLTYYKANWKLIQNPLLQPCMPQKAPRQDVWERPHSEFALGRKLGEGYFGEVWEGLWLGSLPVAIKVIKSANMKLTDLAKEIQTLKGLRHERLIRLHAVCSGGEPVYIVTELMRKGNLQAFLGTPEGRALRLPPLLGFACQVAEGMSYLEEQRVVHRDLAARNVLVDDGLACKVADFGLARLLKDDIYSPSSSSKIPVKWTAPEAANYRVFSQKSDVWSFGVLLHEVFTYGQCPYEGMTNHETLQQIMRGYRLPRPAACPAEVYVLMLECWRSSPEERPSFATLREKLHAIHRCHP
# T1 sequence (Q6P5Z2 whole entry): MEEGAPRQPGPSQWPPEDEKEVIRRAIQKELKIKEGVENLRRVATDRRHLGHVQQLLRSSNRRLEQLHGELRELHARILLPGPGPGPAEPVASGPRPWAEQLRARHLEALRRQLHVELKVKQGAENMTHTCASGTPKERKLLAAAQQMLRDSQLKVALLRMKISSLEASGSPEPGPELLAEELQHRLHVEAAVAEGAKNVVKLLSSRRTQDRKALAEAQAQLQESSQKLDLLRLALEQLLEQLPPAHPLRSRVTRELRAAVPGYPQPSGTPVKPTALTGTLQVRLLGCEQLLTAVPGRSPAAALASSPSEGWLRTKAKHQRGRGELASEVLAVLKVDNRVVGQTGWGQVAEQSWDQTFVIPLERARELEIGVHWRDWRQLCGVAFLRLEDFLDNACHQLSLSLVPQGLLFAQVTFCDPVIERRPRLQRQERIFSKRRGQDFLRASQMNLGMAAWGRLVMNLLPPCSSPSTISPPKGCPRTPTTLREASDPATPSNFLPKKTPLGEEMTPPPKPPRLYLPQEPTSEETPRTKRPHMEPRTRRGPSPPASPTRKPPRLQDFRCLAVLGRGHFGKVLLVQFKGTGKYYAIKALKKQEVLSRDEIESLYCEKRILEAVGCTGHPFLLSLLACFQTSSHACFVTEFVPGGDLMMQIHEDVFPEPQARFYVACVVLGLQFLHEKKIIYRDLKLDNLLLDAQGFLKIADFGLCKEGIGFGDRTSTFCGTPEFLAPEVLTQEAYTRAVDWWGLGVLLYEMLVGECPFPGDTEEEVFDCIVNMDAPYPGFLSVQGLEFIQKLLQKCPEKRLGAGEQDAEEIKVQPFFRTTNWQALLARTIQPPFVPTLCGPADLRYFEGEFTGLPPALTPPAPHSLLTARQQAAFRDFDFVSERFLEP
# CXCR4, sequence (P61073 whole entry): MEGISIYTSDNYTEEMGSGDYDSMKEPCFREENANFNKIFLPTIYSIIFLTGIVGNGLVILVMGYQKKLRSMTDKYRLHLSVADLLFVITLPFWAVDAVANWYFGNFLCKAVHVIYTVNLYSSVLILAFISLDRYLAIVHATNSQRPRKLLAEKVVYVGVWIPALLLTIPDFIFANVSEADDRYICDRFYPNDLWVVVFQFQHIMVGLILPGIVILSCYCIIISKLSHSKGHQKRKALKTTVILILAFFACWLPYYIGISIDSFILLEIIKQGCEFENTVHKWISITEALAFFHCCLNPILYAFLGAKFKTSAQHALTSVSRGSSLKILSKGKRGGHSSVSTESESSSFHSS
IC50 (CXCR4) [nM],Structure (SMILES),inhibition at 1 µM (PKN3) [%],inhibition at 1 µM (LYN) [%],inhibition at 1 µM (RIPK5) [%],inhibition at 1 µM (SRMS) [%],inhibition at 1 µM (MKK6 SDTD) [%]
,"O=C(c1ccc(Oc2ccccc2)cc1Cl)c1c[nH]c2ncnc(N[C@@H]3CC[C@@H](CO)OC3)c12 [ARQ-531, (2-chloro-4-phenoxyphenyl) (4-(((3R,6S)-6-(hydroxymethyl)tetrahydro-2H-pyran-3-yl)amino)-7H-pyrrolo[2,3-d]pyrimidin-5-yl) methanone]",50 to 69,70 to 89,70 to 89,90 to 100,90 to 100
100 to 1000,Cc1cc(-c2ccnc(Nc3cnn(CCN4[C@@H](c5ncccc5C)CCC[C@H]4c4ncccc4C)c3)n2)ccc1CNC(=O)N1CC(OC(C)C)C1 [Compound I-11],,,,,
100 to 1000,Cc1cccnc1[C@H]1CCC[C@@H](c2ncccc2C)N1CCCCNC(=O)[C@@H]1CC[C@@H](Nc2ncnc3[nH]cc(C(=O)c4ccc(Oc5ccccc5)cc4Cl)c23)CO1 [Compound I-16],,,,,
> 2500,Cc1cccnc1[C@H]1CCC[C@@H](c2ncccc2C)N1CCCCNC(=O)OC[C@@H]1CC[C@@H](Nc2ncnc3[nH]cc(C(=O)c4ccc(Oc5ccccc5)cc4Cl)c23)CO1 [Compound I-18],,,,,
,"COc1ccc(F)cc1C(=O)NCc1ccc(-c2nn([C@@H](C)C(F)(F)F)c(N)c2C(N)=O)cc1 [LOXO-305, pirtobrutinib]",< 50,< 50,< 50,< 50,< 50
,"C=CC(=O)N1CCC([C@@H]2CCNc3c(C(N)=O)c(-c4ccc(Oc5ccccc5)cc4)nn32)CC1 [Zanubrutinib, (7S)-2-(4-phenoxyphenyl)-7-(1-prop-2-enoylpiperidin-4-yl)-4,5,6,7-tetrahydropyrazolo[1,5-a]pyrimidine-3-carboxamide]",< 50,,< 50,< 50,< 50

Structure (SMILES),IC50 (CXCR4) [nM],inhibition at 1 µM (PKN3) [%],inhibition at 1 µM (LYN) [%],inhibition at 1 µM (RIPK5) [%],inhibition at 1 µM (SRMS) [%],inhibition at 1 µM (MKK6 SDTD) [%]
"Cc1cccnc1[C@H]1CCC[C@@H](c2ncccc2C)N1CCN1CCN(C(=O)c2ccc(-c3cc4c(-c5cccc(NC(=O)c6ccccc6)c5C)ncnc4[nH]3)cc2)CC1 [Compound I-10, N-(3-(6-(4-(4-(2-((2R,6S)-2,6-bis(3-methylpyridin-2-yl)piperidin-1-yl)ethyl)piperazine-1-carbonyl)phenyl)-7H-pyrrolo[2,3-d]pyrimidin-4-yl)-2-methylphenyl)benzamide]",1 to 100,50 to 69,< 50,< 50,< 50,< 50
